Experimental data as given in a melting point compilation (Tetko et al.).

Structure (SMILES) | melting point [°C]
NC(Cc1ccccc1)(C(=O)O)c1ccccc1 (stereo not given) | 264 to 266
N#Cc1ccc(S(N)(=O)=O)cc1Cl | 157 to 159
CCNC(=O)COc1cccc(CN)c1 | 62 to 64
Oc1ccnc2cc(Cl)c(Br)cc12 | 369 to 371
Nc1cccnc1N1CCCC1 | 78 to 80
Cc1nc2ccccc2n1N | 145 to 147
O=C(O)c1cc(Cl)ccc1OCC(F)(F)F | 121 to 123
NC(=O)CCNCc1ccccc1 | 164 to 166
CNc1cccc([N+](=O)[O-])c1 | 65 to 67
O=C(O)c1cc(-c2ccncc2)on1 | 276 to 278
O=c1oc2ccccc2nc1NO | 254 to 256
Cc1ccc(C(=O)c2ccccc2Cl)cc1 | 90 to 92
COc1cccc(NCCC#N)c1 | 81 to 83
COc1ccnc(N2CCNCC2)c1 | 36 to 38
NNC(=O)CCOc1ccccc1 | 69 to 71
O=C(O)CCc1ccc(-c2ccccc2)o1 | 118 to 120
COc1cc(-c2ccccc2)sc1C(=O)O | 167 to 169
O=C(O)c1ccc(-c2ccco2)o1 | 147 to 149
COCCn1c(S)nc2ccccc21 | 127 to 129
COc1ccc(-c2nnc(S)n2N)cc1OC | 204 to 208
Nc1[nH]nc(-c2ccccc2)c1-c1ccccc1 | 141 to 143
CCOC(=O)c1c(-c2ccccc2Cl)csc1N | 65 to 73

Structure (SMILES) | melting point [°C]
COc1ccc(-c2cc(C(=O)O)c3sc(N4CCCCC4)nc3n2)cc1OC | 284 to 286
O=C(O)c1ncc(Cl)cc1Cl | 139 to 141
CCOC(=O)C(N)=NO | 94 to 96
COc1cc(C(=O)O)ccc1OCc1ccccc1Cl | 143 to 145
COc1ccccc1NS(=O)(=O)c1cccc(C(=O)O)c1 | 156 to 158
Cc1nc(-c2ccc(S(=O)(=O)Cl)cc2)co1 | 84 to 86
Cc1cc(Br)ncc1N | 54 to 56
Oc1ccc(-c2nnco2)cc1 | 210 to 212
Nc1ccc(S(N)(=O)=O)cc1F | 166 to 168
CCCCn1c(SCC(=O)O)nc2cc(C(F)(F)F)ccc21 | 120 to 122
CC(C)(C)OC(=O)NC1CCC2CNCC21 (stereo not given) | 109 to 111
NC(=O)Nc1ccc(C(=O)O)cc1 | 296 to 298
CC(C(=O)O)N1C(=O)C2C3CCC(O3)C2C1=O (stereo not given) | 189 to 191
COc1ccc(Cn2c(N)nc3ccccc32)cn1 | 173 to 175
COC(=O)Nc1cccc(O)c1 | 95 to 97
N=C(N)NN=Cc1ccccc1 | 179 to 181
Fc1nc(C(F)(F)F)ccc1I | 48 to 50
Cc1c(C(=O)O)oc2c(Cl)cc(Br)cc12 | 272 to 274
COc1nc2cc(N)ccc2o1 | 123 to 125
Cc1nnc(Cl)c(C#N)c1C | 61 to 63
N#Cc1ccc(C(F)(F)F)nc1Cl | 38 to 40
Clc1ccc2nncn2n1 | 213 to 215

Structure (SMILES) | melting point [°C]
Cc1nc(N)ccc1I | 99 to 100
NC(CSCc1cccc2cccnc12)C(=O)O (stereo not given) | 171 to 173
Cc1cccc(OCCNc2ccc(F)cc2N)c1 | 76 to 78
Clc1ccc2nccnc2n1 | 148 to 150
CCNC(=O)NCCCO | 53 to 55
Nc1n[nH]c2nc3ccccc3cc12 | 314 to 316
CN(C)c1ccc(/C=C/c2cc(C(=O)O)c3cc(Br)ccc3n2)cc1 | 298 to 300
CCOC(=O)c1cnc2ccccc2c1-n1cncn1 | 84 to 86
Cc1nn(-c2ccccc2)cc1C(=O)O | 192 to 194
CCOc1ccc(-c2cc(C(=O)O)c3c(C)noc3n2)cc1 | 222 to 224
Sc1nnc(-c2cc3ccccc3o2)o1 | 249 to 251
Cn1c(Cl)nc2ccccc21 | 111 to 113
O=C(O)c1c(C(F)(F)F)n[nH]c1C(F)(F)F | 255 to 257
CCOc1cc2c(cc1OCC)CNCC2 | 108 to 110
Nc1ccnc2ccncc12 | 254 to 256
CCc1cc2c(Cl)ncnc2s1 | 55 to 57
Cc1ccccc1-c1noc(S)n1 | 150 to 152
CC(=O)c1cnn(-c2ccccn2)c1C | 75 to 77
Sc1n[nH]c(-c2cccnc2)n1 | 304 to 306
O=C(Cc1ccc(Br)cc1)Nc1ccccc1C(=O)O | 212 to 214
O=C(O)Cn1nnc(COc2ccccc2)n1 | 111 to 113
O=C(Nc1cnccn1)c1ccc(Br)cc1 | 195 to 197

The next lines start with the values.

melting point [°C] | Structure (SMILES)
124 to 126 | CCOC(=O)c1ccc(S(=O)(=O)N2CCCC2C(=O)O)o1 (stereo not given)
138 to 140 | O=C(O)C1Cc2ccccc2CN1S(=O)(=O)c1ccccc1 (stereo not given)
107 to 109 | CC(C)(C)C1CCc2[nH]c3ccc(Cl)cc3c2C1 (stereo not given)
146 to 148 | Nc1ccc(N2CCCCC2)c(S(=O)(=O)Nc2ccccc2Cl)c1
134 to 136 | NNC(=O)CSc1ccccc1O
229 to 231 | O=C1Nc2cc(F)cc(F)c2C1=O
147 to 149 | CCC(C)[C@H](NC(=O)N1CCCC1)C(=O)O (stereo not given in full)
141 to 143 | CS(=O)(=O)c1ccc(Cl)c(S(=O)(=O)Cl)c1
65 to 67 | CCc1ccc(C(C)CC(=O)O)cc1 (stereo not given)
198 to 200 | Nc1nnc(C2Cc3ccccc3O2)o1 (stereo not given)
191 to 193 | O=C(O)c1cc(S(=O)(=O)Cl)c(F)c(Cl)c1F
128 to 130 | Cc1ccc(CN2C(=O)CCC2C(=O)O)cc1 (stereo not given)
107 to 109 | CSCC(=O)Nc1ccc(O)cc1
199 to 201 | O=C(O)c1n[nH]ccc1=O
66 to 70 | COC(=O)c1cc(Br)ccc1S(=O)(=O)Cl
242 to 244 | O=C1Nc2ccccc2C1=NO
95 to 97 | CCOC1CCN(C(=O)Nc2cccc(C(C)=O)c2)CC1
103 to 105 | CCOC(=O)c1oc2ccc(OC)cc2c1C
167 to 169 | O=C(O)CCN1C(=O)NC2(CCCC2)C1=O
154 to 156 | C=CCN1C(=O)c2ccc(C(=O)O)cc2C1=O
112 to 114 | NC1CC(=O)N(c2ccc(Oc3ccccc3)cc2)C1 (stereo not given)
250 to 252 | O=C(O)c1ccc2c(=O)[nH][nH]c(=O)c2c1
125 to 127 | O=C(CCl)NCc1ccccc1CN1CCCC1=O
162 to 164 | Cc1ccc(S(=O)(=O)NC(C)C)cc1C(=O)O
152 to 154 | Nc1ccc(Cl)cc1C(=O)NCC1CC1
172 to 174 | O=c1cc(CO)nc2ccccn12
199 to 201 | CC(=O)N1CCN(CC(N)=NO)CC1

melting point [°C] | Structure (SMILES)
229 to 231 | COc1cc(C(=O)O)cc(NC(C)=O)c1OC
232 to 234 | COc1ccc(NS(=O)(=O)c2cc(N)ccc2N2CCOCC2)cc1
72 to 74 | COC(=O)c1ccc(OCCBr)c(Cl)c1
50 to 52 | COc1c(F)cc(Br)cc1S(=O)(=O)Cl
252 to 254 | COC(=O)c1ccc2c(c1)NCC(=O)N2
176 to 178 | CC(C)C(NC(=O)c1ccccc1)c1nn[nH]n1 (stereo not given)
216 to 218 | CCc1cc2c(C)cc(=O)oc2cc1O
93 to 95 | CC(C)c1ccc(C(=O)O)c(O)c1
92 to 94 | CC(=O)CC(=O)c1ccc(Br)cc1
109 to 111 | COc1ccc(-c2noc(CCCC(=O)O)n2)cc1
135 to 137 | CCOC(=O)c1csc(Cc2ccc(NC(=O)OC(C)(C)C)cc2)n1
104 to 106 | CC1(C)C(O)CC1O (stereo not given)
151 to 153 | COc1ccc2nc(CCl)[nH]c2n1
115 to 117 | O=C(Nc1ccc(F)cc1)C1CCc2ccccc2N1 (stereo not given)
195 to 197 | Cn1c(Cl)cc(=O)[nH]c1=O
39 to 41 | O=C(CC(=O)C(F)F)c1ccco1
146 to 148 | Cc1ccc2c(c1)NC(=O)C(C)O2 (stereo not given)
75 to 77 | CC(O)c1cn(-c2ccccc2)nn1 (stereo not given)
86 to 88 | O=C(C1CCCCC1)N1CCNCC1
150 to 152 | NC(=O)C1CNc2ccccc21 (stereo not given)
283 to 285 | O=C(O)c1ccc2c(c1)S(=O)(=O)N(C1CC1)C2=O
257 to 259 | Cn1c(N)nccc1=O
87 to 89 | CN1CCN(CCC(=O)NN)CC1
42 to 44 | O=S(=O)(Cl)c1ccc(OCC(F)F)cc1
183 to 185 | Cc1[nH]c(SCC(=O)O)nc1Cc1ccccc1
51 to 53 | Cc1cc(CO)nc(N2CCCCC2)n1
129 to 131 | CC(C)CC1CCC(=O)NC1=O (stereo not given)

melting point [°C] | Structure (SMILES)
99 to 101 | CC(C)Nc1ccc(C#N)cn1
119 to 121 | O=C1NCCc2ccc(F)cc21
94 to 96 | CCN(CC)S(=O)(=O)c1ccc(N2CCOCC2)c(N)c1
150 to 152 | Nc1cccc(NC(=O)CO)c1
40 to 42 | CN(C)Cc1cccc(N)c1
111 to 113 | Cc1ccc(S(=O)(=O)NCCCC(=O)O)cc1C
71 to 80 | CCOC(=O)C(C(C)=O)C1CCS(=O)(=O)C1 (stereo not given)
62 to 66 | CC(C)(C)OC(=O)N1CCCCC1C#N (stereo not given)
218 to 220 | Cc1cc(C(=O)O)c(O)c(S(N)(=O)=O)c1
171 to 173 | CCCc1nc2c(c(=O)[nH]1)CCN(Cc1ccccc1)C2
105 to 107 | O=c1c2ccccc2ncn1CCBr
173 to 175 | O=C(O)C1CCN(Cc2ccc(Cl)s2)CC1
39 to 41 | CC(CS(C)(=O)=O)NC1CC1 (stereo not given)
95 to 97 | CC(C)(C)OC(=O)N1CCN(C(=O)CN)CC1
114 to 116 | O=C(O)C1CSCN1C(=O)C1CCCC1 (stereo not given)
82 to 84 | COc1ccc(C2C(CO)CC(=O)N2C)cc1 (stereo not given)
233 to 235 | COC(=O)c1cc(C(=O)O)ccn1
72 to 74 | NC1CCN(C(=O)C2CCCCC2)C1 (stereo not given)
41 to 43 | COCc1cccc(CNC(=O)CCl)c1
109 to 111 | CC(C)(Sc1ccc(Br)cc1)C(=O)O
89 to 91 | CN1CCNc2cccnc21
150 to 152 | CC(C)(C)OC(=O)N1CCCCCC1C(N)=NO (stereo not given)
178 to 180 | CS(=O)(=O)Nc1ccc(C(=O)CBr)cc1
135 to 137 | CCOC(=O)C1CC(=O)NN1c1ncccc1Cl (stereo not given)
169 to 171 | NC(=S)c1ccc(Br)s1
